# Measured values reported in ChEMBL document CHEMBL1201862, “PubChem BioAssay data set” (2004).
#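 The compound was tested at five concentrations on cells cultured in 96-well plates, with a 48-hour exposure period. GI50 marks 50% less growth.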 Active and inactive are the calls of the source. No stated cut-off is given here; in the data, active = GI50 up to about 1.1 µM and inactive = higher.
# Assays:
# Experiment in all cases: inhibition of tumour cell growth, NCI panel, 48 h
# [1] = tested on: CCRF-CEM
# [2] = tested on: COLO 205
# [3] = tested on: HL-60
# [4] = tested on: HOP-62
# [5] = tested on: HOP-92
# [6] = tested on: K562
# [7] = tested on: KM12
# [8] = tested on: LOX IMVI
# [9] = tested on: MCF7
# [10] = tested on: MDA-MB-435
# [11] = tested on: MDA-N
# [12] = tested on: Malme-3M
# [13] = tested on: NCI-H23
# [14] = tested on: RPMI-8226
# [15] = tested on: SF-268
# [16] = tested on: SK-MEL-5
# [17] = tested on: SK-OV-3
# [18] = tested on: SNB-75
# [19] = tested on: UACC-257
# [20] = tested on: UACC-62
Compound,GI50 [1],GI50 [2],GI50 [3],GI50 [4],GI50 [5],GI50 [6],GI50 [7],GI50 [8],GI50 [9],GI50 [10],GI50 [11],GI50 [12],GI50 [13],GI50 [14],GI50 [15],GI50 [16],GI50 [17],GI50 [18],GI50 [19],GI50 [20]
COc1ccc(OC)c(CCc2cc(OC)ccc2OC)c1,2.9 µM (inactive),1.29 µM (inactive),1.5 µM (inactive),3.73 µM (inactive),> 10 µM (inactive),0.912 µM (active),0.12 µM (active),0.676 µM (active),0.358 µM (active),0.174 µM (active),0.234 µM (active),0.369 µM (active),3.18 µM (inactive),2.82 µM (inactive),7.76 µM (inactive),0.324 µM (active),4.33 µM (inactive),2.41 µM (inactive),5.38 µM (inactive),2.63 µM (inactive)
CC(C)c1c(O)ccc2c1CCC1C(C)(C)CCCC21C (centres undefined),24.4 µM (inactive),17.8 µM (inactive),29 µM (inactive),–,18.6 µM (inactive),21.6 µM (inactive),20.5 µM (inactive),17.1 µM (inactive),19.1 µM (inactive),18.6 µM (inactive),17.1 µM (inactive),18.6 µM (inactive),17.3 µM (inactive),22.9 µM (inactive),19.9 µM (inactive),16.3 µM (inactive),18.9 µM (inactive),18.6 µM (inactive),17.7 µM (inactive),15.2 µM (inactive)
O=S(=O)(SC1=NCCN1)c1cccc2ccccc12,21.8 µM (inactive),17.8 µM (inactive),> 10 µM (inactive),31.3 µM (inactive),36.8 µM (inactive),24 µM (inactive),17.9 µM (inactive),43.8 µM (inactive),30.9 µM (inactive),29.6 µM (inactive),18.7 µM (inactive),32 µM (inactive),28.4 µM (inactive),19.1 µM (inactive),–,19.1 µM (inactive),19.5 µM (inactive),13.8 µM (inactive),28.5 µM (inactive),34.4 µM (inactive)
S=C1SSC2N=CC=CC12 (centres undefined),5.66 µM (inactive),> 100 µM (inactive),40.5 µM (inactive),–,74.1 µM (inactive),49.1 µM (inactive),17.3 µM (inactive),31.3 µM (inactive),36.7 µM (inactive),17.3 µM (inactive),> 100 µM (inactive),56 µM (inactive),> 100 µM (inactive),63.8 µM (inactive),> 100 µM (inactive),43.3 µM (inactive),> 100 µM (inactive),> 100 µM (inactive),> 100 µM (inactive),76.4 µM (inactive)
CC1OC(Oc2c(-c3cc(O)c(O)c(O)c3)oc3cc(O)cc(O)c3c2=O)C(O)C(O)C1O (centres undefined),> 10 µM (inactive),> 100 µM (inactive),56.6 µM (inactive),> 100 µM (inactive),> 100 µM (inactive),–,> 100 µM (inactive),> 100 µM (inactive),> 100 µM (inactive),57.4 µM (inactive),31 µM (inactive),> 100 µM (inactive),> 100 µM (inactive),> 100 µM (inactive),> 100 µM (inactive),> 100 µM (inactive),> 100 µM (inactive),> 100 µM (inactive),> 100 µM (inactive),> 100 µM (inactive)
O=C1CC2C(=O)C1C(C(=O)O)C2C(=O)O (centres undefined),> 100 µM (inactive),> 100 µM (inactive),> 100 µM (inactive),> 100 µM (inactive),> 100 µM (inactive),> 100 µM (inactive),> 100 µM (inactive),> 100 µM (inactive),> 100 µM (inactive),> 100 µM (inactive),> 100 µM (inactive),> 100 µM (inactive),> 100 µM (inactive),> 100 µM (inactive),> 100 µM (inactive),> 100 µM (inactive),> 100 µM (inactive),–,> 100 µM (inactive),> 100 µM (inactive)
C=CC[C@H]1O[Si](C(C)(C)C)(C(C)(C)C)[C@H](C)[C@H]1C,> 100 µM (inactive),> 100 µM (inactive),> 100 µM (inactive),> 100 µM (inactive),24.3 µM (inactive),> 100 µM (inactive),> 100 µM (inactive),> 100 µM (inactive),> 100 µM (inactive),> 100 µM (inactive),> 100 µM (inactive),20.3 µM (inactive),> 100 µM (inactive),> 10 µM (inactive),–,> 100 µM (inactive),> 100 µM (inactive),> 100 µM (inactive),> 100 µM (inactive),> 100 µM (inactive)
